Assay: Stability testing of the herbicides mixture suspension
Type: physicochemical
Conditions: 40° C. for 30 days
Procedure: Stability testing of the herbicides mixture suspension: The commercial solutions containing Glyphosate or Round-Up are mixed together, and tested along with the stable Round-Up and Glyphosate mixed suspensions of the present invention. The liquids placed in an oven at 40° C. for 30 days. The remaining activities of the herbicides in the samples are measured following standard protocols.

O=C(O)CNCP(=O)(O)O [Glyphosate]
remaining activity of the herbicide, free commercial solutions mixed together: No Glyphosate activity is detected
